In ChEMBL document CHEMBL1201862, “PubChem BioAssay data set” (2004):
Active and inactive are the calls of the source.

Legend:
[1] = biological target: Acyl-homoserine lactone acylase PvdQ (Pseudomonas aeruginosa (strain LESB58), UniProt Q9I194); assay: PvdQ acylase enzyme activity blockers – biochemical, fluorescence, plate reader and imaging, cherry-picks, dose response (AID 493231)
[2] = biological target: Peroxisome proliferator-activated receptor gamma/Nuclear receptor coactivator 3 (Homo sapiens, UniProt P37231); type: functional;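 also: agonist potency for raising coactivator recruitment to the receptor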
[3] = biological target: T1, Zinc finger protein mex-5 (Caenorhabditis elegans, UniProt Q9XUB2); assay: potency of MEX-5 RNA-binding blockers – biochemical, C. elegans, fluorescence polarization, dose response (AID 1960)
T1 sequence (Q9XUB2 whole entry): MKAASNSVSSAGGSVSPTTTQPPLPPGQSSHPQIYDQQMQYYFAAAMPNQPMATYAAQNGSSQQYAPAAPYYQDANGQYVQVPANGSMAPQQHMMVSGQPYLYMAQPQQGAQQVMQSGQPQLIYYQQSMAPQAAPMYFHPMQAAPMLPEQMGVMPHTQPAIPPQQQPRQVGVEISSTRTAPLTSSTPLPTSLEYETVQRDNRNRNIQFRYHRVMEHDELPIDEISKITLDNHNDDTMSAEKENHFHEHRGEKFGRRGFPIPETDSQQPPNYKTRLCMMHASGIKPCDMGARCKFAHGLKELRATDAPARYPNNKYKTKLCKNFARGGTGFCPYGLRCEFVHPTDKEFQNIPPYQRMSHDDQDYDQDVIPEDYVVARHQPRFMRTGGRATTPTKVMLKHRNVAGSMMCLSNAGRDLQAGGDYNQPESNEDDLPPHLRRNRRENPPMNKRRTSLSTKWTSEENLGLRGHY

[4] = biological target: T2, RNA-binding protein pos-1 (Caenorhabditis elegans, UniProt G5EF15); assay: disruptors of C. elegans POS-1 RNA interaction – biochemical, fluorescence polarization, dose response (AID 1964);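 also: purified POS-1 fused to maltose binding protein made in E. coli; potency of compounds blocking POS-1 binding to fluorescent RNA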
T2 sequence (G5EF15 whole entry): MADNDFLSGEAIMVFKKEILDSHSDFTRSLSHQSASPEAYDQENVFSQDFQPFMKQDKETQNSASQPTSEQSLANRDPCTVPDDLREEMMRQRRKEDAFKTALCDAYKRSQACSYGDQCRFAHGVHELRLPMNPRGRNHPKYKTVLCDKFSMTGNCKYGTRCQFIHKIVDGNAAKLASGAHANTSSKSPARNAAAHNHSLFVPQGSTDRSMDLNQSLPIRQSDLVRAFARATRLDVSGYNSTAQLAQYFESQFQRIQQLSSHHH

[5] = biological target: Peroxisome proliferator-activated receptor gamma/Nuclear receptor coactivator 1 (Homo sapiens, UniProt P37231); type: functional;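 also: agonist potency as compounds enhance coactivator SRC-1 recruitment to PPARgamma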
[6] = biological target: Scavenger receptor class B member 1 (Mus musculus, UniProt Q61009); assay: mouse SR-BI DiI-HDL uptake blockers – ldlA[mSR-BI] cells, fluorescence, cherry pick, dose response (AID 493194); type: functional, cell-based;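 also: cellular uptake of fluorescent DiI-labeled HDL measured as cell fluorescence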
[7] = biological target: Peroxisome proliferator-activated receptor gamma/Nuclear receptor coactivator 2 (Homo sapiens, UniProt P37231); type: functional;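 also: agonist potency for raising coactivator recruitment to the receptor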
Streptokinase A = biological target: T3, Streptokinase A (Streptococcus pyogenes serotype M1, UniProt P10520); assay: viability-normalized secreted streptokinase activity reduction – plasminogen activation absorbance, OD405, dose response (AID 1914); type: functional, Streptococcus pyogenes M1 GAS;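 also: secreted streptokinase activity via plasminogen activation per viability signal from cell pellet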
T3 sequence (P10520 whole entry): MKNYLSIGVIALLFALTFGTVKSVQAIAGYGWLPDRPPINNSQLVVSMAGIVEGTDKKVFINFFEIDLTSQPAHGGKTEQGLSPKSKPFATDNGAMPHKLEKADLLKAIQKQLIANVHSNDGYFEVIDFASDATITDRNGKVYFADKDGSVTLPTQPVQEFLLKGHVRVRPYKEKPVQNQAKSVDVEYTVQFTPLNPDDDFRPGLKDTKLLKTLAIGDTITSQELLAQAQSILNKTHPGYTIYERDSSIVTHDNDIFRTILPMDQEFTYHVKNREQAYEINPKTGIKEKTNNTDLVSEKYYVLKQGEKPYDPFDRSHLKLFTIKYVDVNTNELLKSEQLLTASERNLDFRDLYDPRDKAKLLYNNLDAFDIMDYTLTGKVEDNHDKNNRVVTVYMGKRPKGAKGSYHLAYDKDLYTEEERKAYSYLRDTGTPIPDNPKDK

Streptococcus = assay: GAS UMAA2166 growth inhibition – luminescence, BacTiterGlo, counter-screen for streptokinase expression inhibitor project, dose response (AID 1915); type: functional, organism-based;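 also: potency for reduction of bacterial viability or growth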
[8] = test system: Streptococcus sp. 'group A'; assay: Streptococcus pyogenes SK(-)GAS viability under kanamycin – luminescence, BacTiterGlo, confirmation, counter-screen for streptokinase expression inhibitor project, dose response (AID 1900); type: functional, organism-based
[9] = biological target: Polyadenylate-binding protein 1 (Homo sapiens, UniProt P11940); assay: blockers of PABP interaction with poly(A) – biochemical, fluorescence polarization, […] (AID 2014)
BJ [10] = assay: cells; type: functional, cell-based; conditions: Homo sapiens
[11] = HEK-293T viability loss after treatment – luminescence, T-cell screen hits, cytotoxicity control for TCR NF-kB inhibitor project, dose response (AID 489026); type: functional, cell-based;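 also: cells exposed to compound about 14 hours before the viability readout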
BJ [12] = assay: BJ-TERT fibroblast viability loss – cell-based, RAS-independent, luminescence, dose response (AID 1933); type: functional; conditions: Homo sapiens
Estrogen receptor beta = Estrogen receptor beta (Homo sapiens, UniProt Q92731);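 also: recombinant ER-beta bound to coactivator SRC1 peptide in presence of estradiol agonist; inhibitors block coactivator peptide binding and lower the FRET signal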
BJ [13] = assay: BJ-TERT-LT-ST fibroblast viability loss – cell-based, RAS-independent, luminescence, dose response (AID 1935); type: functional; conditions: Homo sapiens;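 also: BJ fibroblasts immortalized with TERT plus LT and ST oncogenes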
[14] = DRD fibroblast viability loss – cell-based, non-viral oncogenic, luminescence, dose response (AID 1934); type: functional; conditions: Homo sapiens
[15] = biological target: Eukaryotic translation initiation factor 4H (Homo sapiens, UniProt Q15056); assay: eIF4H binding inhibition – biochemical, uHTS, fluorescence polarization, translation initiation inhibitor project, primary screen (AID 2012)
Estrogen receptor = Estrogen receptor (Homo sapiens, UniProt P03372);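 also: potency for inhibiting coactivator peptide recruitment to the receptor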
[16] = biological target: T4, Delta-type opioid receptor (Homo sapiens, UniProt P41143); assay: HTS Image-Based Screen for Agonists of the DOR Receptor. [Related pubchem assays (depositor defined):AID1777, AID1786, AID2133]; type: functional
Mu-type opioid receptor [17] = biological target: T5, Mu-type opioid receptor (Homo sapiens, UniProt P35372); assay: HTS Image-Based Screen for Agonists of the MOR Receptor. [Related pubchem assays (depositor defined):AID1777, AID1785, AID1786, AID2133]; type: functional
[18] = biological target: T6, Kappa-type opioid receptor (Homo sapiens, UniProt P41145); assay: SAR analysis of small molecule agonists of the kappa opioid receptor via a luminescent beta-arrestin assay. [Related pubchem assays (depositor defined):AID1777, AID1786, AID1966, AID2133, AID2136, AID2348, AID2352, AID2357, AID2359, AID2370, AID2420, AID2478, AID2491, AID2492, AID2493, AID2497, AID2498, AID2500, AID449737, AID488822, AID488842]; type: functional
[19] = biological target: T4, Delta-type opioid receptor; assay: HTS Image-Based Screen for Antagonists of the DOR Receptor. [Related pubchem assays (depositor defined):AID1777, AID1785, AID1786, AID2133]; type: functional
[20] = biological target: T6, Kappa-type opioid receptor; assay: kappa opioid receptor blockers, image-based, SAR follow-up (AID 2348); type: functional
[21] = biological target: T4, Delta-type opioid receptor; assay: delta opioid receptor blockers – image-based, SAR follow-up (AID 2357); type: functional
Mu-type opioid receptor [22] = biological target: T5, Mu-type opioid receptor; assay: mu opioid receptor activators, image-based, SAR follow-up (AID 2352); type: functional
Mu-type opioid receptor [23] = biological target: T5, Mu-type opioid receptor; assay: mu opioid receptor blockers – image-based, SAR follow-up (AID 2420); type: functional;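 also: compounds added before stimulation of receptor with agonist DAMGO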
[24] = biological target: T6, Kappa-type opioid receptor; type: functional
[25] = biological target: T4, Delta-type opioid receptor; assay: DOR agonists, SAR follow-up, image-based (AID 2370); type: functional
[26] = biological target: T6, Kappa-type opioid receptor; assay: kappa opioid receptor activation potency – imaging, image-based, SAR follow-up (AID 2359); type: functional
[27] = biological target: T6, Kappa-type opioid receptor; type: functional; remark: listed apart in the source
[28] = biological target: Signal transducer and activator of transcription 3 (Homo sapiens, UniProt P40763); assay: STAT3 activation with BCL3 mRNA and toxicity – cell-based, […], BCL3 qPCR, cytotoxicity, late-stage follow-up, panel member STAT3 Activation (AID 2049)
[29] = biological target: NACHT, LRR and PYD domains-containing protein 3 (Homo sapiens, UniProt Q96P20); assay: NALP3 inhibitors in yeast, dose response, luminescent (AID 488799); type: functional
[30] = viability loss in THP-1 monocytes – THP-1 cells, cytotoxicity control for Vif-APOBEC3G degradation inhibitor project, dose response (AID 1117359); type: functional; conditions: THP-1
HeLa = assay: viability loss in HeLa cells – cell-based, 24 h, cherry-picked samples, cytotoxicity control, dose response (AID 504726); type: functional; conditions: Homo sapiens;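 also: potency for cytotoxicity as loss of luminescence signal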
[31] = biological target: DNA (cytosine-5)-methyltransferase 1 (Homo sapiens, UniProt P26358); assay: inhibition of DNA methylation by DNMT1 – biochemical, fluorescent molecular beacon, confirmation (AID 602386); type: functional
Cytochrome P450 2C9 = Cytochrome P450 2C9 (Homo sapiens, UniProt P11712)
Cytochrome P450 2C19 = Cytochrome P450 2C19 (Homo sapiens, UniProt P33261); assay: Cytochrome panel assay with activity outcomes. Panel member name: p450-cyp2c19 Compounds with AC50 equal or less than 10 uM are considered active; type: functional; conditions: read-out: AC50
Cytochrome P450 2C19, sequence (P33261 whole entry): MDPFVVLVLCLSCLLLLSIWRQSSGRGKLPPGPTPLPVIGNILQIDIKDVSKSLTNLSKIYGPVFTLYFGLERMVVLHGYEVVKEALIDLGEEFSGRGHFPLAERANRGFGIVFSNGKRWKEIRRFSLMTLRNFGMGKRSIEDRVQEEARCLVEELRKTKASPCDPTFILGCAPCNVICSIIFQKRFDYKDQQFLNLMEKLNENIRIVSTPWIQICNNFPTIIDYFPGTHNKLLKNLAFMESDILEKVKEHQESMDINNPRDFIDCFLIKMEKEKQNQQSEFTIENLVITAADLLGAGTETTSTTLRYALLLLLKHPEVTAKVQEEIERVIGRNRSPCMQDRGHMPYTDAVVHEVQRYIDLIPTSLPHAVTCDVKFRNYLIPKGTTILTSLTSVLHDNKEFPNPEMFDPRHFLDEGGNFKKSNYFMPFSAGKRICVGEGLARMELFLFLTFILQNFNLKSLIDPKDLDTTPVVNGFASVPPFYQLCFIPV

T6 sequence (P41145 whole entry): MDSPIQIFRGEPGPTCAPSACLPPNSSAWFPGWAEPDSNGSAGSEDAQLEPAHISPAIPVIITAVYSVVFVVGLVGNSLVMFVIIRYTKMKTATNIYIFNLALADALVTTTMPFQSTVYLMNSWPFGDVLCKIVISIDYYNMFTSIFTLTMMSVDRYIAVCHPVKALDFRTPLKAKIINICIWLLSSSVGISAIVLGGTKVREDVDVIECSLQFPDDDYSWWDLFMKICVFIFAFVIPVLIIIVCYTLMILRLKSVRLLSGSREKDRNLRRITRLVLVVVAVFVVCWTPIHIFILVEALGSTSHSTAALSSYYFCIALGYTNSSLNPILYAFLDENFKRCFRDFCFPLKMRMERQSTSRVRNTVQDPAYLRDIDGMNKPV
T4 sequence (P41143 whole entry): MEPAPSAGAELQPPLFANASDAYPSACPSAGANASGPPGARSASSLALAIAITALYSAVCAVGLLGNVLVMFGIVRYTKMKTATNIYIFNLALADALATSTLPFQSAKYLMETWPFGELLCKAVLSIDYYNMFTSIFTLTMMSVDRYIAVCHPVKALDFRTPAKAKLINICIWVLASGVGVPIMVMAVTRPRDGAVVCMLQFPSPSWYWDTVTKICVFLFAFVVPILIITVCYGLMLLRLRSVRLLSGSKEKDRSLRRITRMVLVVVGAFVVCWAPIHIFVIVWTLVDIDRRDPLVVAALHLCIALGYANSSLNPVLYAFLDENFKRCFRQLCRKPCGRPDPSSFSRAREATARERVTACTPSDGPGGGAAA
T5 sequence (P35372 whole entry): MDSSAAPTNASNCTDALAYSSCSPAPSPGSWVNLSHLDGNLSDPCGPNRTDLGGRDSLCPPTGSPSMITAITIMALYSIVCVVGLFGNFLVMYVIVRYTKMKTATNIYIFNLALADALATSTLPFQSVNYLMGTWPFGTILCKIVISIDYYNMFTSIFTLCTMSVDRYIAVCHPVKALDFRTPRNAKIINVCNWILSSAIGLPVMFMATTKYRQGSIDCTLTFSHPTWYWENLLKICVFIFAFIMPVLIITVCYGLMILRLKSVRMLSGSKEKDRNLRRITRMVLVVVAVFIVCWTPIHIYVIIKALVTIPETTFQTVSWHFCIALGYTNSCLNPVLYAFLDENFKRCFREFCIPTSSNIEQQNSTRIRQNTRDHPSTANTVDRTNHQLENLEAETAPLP
Scavenger receptor class B member 1, sequence (Q61009 whole entry): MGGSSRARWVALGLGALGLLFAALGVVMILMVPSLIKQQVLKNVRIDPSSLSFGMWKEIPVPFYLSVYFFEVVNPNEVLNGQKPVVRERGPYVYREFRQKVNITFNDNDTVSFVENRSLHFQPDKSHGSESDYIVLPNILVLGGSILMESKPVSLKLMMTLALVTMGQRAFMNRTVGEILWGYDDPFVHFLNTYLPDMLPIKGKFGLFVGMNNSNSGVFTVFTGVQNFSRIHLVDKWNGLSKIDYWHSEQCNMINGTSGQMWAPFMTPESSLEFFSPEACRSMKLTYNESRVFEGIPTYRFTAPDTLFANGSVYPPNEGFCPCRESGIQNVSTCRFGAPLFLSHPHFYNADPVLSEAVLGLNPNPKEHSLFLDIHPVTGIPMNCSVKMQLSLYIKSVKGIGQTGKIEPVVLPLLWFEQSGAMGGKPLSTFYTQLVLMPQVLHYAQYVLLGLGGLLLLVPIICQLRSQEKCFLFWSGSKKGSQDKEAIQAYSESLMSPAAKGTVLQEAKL
Estrogen receptor, sequence (P03372 whole entry): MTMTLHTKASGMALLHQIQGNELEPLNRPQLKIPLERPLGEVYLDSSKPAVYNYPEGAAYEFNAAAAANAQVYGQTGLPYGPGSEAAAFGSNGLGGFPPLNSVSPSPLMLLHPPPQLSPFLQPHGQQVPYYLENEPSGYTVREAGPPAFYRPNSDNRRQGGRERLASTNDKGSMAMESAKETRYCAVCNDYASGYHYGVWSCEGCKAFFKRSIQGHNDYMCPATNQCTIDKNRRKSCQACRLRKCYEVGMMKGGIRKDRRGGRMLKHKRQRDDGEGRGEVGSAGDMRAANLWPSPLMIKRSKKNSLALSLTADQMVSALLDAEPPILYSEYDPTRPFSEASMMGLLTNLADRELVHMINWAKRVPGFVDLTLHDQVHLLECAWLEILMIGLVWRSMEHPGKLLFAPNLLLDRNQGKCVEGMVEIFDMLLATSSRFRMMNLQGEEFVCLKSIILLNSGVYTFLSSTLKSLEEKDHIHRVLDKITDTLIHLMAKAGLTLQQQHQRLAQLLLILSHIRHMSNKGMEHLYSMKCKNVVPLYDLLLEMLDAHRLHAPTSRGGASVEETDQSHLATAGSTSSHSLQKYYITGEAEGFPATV
Cytochrome P450 2C9, sequence (P11712 whole entry): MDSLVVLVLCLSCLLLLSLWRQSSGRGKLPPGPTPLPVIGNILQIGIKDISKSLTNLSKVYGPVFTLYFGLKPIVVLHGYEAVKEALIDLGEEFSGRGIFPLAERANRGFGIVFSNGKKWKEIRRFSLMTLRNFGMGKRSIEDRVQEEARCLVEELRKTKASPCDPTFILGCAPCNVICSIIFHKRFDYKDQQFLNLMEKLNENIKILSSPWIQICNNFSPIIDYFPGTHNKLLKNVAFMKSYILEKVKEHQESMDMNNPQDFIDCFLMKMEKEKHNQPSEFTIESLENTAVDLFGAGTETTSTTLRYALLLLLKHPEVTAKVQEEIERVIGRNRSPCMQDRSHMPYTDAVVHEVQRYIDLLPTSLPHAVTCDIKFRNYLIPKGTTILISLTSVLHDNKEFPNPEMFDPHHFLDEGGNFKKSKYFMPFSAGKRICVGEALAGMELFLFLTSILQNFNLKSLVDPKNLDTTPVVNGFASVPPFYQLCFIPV
Acyl-homoserine lactone acylase PvdQ, sequence (Q9I194 24-193 limits assumed): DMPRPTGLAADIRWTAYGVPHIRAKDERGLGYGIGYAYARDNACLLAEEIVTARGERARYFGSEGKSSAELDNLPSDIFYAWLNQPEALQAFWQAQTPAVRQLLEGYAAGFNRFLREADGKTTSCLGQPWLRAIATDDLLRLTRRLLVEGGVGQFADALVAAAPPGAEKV
Acyl-homoserine lactone acylase PvdQ, sequence (Q9I194 217-762 limits assumed): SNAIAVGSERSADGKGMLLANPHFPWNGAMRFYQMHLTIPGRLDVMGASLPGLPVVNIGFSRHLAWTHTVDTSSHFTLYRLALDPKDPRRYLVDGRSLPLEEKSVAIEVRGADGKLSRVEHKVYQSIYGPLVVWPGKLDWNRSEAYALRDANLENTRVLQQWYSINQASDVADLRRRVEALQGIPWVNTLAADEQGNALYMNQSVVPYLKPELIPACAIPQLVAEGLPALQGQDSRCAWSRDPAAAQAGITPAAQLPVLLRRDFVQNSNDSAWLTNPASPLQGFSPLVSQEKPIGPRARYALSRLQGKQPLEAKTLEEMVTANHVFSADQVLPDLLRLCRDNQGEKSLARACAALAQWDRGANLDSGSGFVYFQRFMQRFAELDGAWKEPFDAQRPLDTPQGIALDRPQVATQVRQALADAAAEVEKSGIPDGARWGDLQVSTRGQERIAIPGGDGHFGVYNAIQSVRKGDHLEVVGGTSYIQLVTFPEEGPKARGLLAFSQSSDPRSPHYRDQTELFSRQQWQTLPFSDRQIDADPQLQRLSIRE
Signal transducer and activator of transcription 3, sequence (P40763 whole entry, the tested form may be a part): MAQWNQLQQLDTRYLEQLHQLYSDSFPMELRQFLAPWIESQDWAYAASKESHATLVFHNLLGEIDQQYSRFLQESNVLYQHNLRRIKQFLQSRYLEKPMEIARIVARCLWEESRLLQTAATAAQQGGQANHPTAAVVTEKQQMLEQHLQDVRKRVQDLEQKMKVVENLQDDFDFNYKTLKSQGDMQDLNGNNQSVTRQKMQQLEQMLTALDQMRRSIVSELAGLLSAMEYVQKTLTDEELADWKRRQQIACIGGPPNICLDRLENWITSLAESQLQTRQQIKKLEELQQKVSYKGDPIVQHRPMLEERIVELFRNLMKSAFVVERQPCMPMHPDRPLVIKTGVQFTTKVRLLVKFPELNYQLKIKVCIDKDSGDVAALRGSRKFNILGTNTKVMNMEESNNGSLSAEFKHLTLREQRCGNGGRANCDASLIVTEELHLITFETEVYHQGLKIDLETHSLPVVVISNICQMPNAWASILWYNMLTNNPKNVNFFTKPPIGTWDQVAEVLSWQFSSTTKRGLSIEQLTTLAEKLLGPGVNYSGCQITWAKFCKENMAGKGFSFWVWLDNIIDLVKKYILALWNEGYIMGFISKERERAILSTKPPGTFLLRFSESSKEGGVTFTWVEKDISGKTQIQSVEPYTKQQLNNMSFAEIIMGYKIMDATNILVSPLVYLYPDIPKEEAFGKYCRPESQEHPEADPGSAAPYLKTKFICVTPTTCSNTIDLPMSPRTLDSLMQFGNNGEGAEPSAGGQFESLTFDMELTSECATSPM

## O=[N+]([O-])c1ccc(Sc2ccccc2Cl)nc1
[1]
  AC50: 33.2 µM (active)

## Cc1cc(C)c2c(c1)NC(c1cc3c(cc1Br)OCO3)C1CC=CC21 (stereo not drawn)
[2]
  EC50: > 79.4 µM (not active)
[3]
  EC50: > 300 µM (not active)
[4]
  EC50: > 300 µM (not active)
[5]
  EC50: > 79.4 µM (not active)
[6]
  AC50: 19 µM (active)
[7]
  EC50: > 79.4 µM (not active)
Streptokinase A
  EC50: > 150 µM (not active)
Streptococcus
  EC50: 114 µM (active)
[8]
  EC50: 5.11 µM (active)

## C/C=C/COC(=O)c1[nH]c2c(c1C)C(=O)CC(c1ccco1)C2 (stereo not drawn)
[9]
  IC50: 45.8 µM (active)
BJ [10]
  EC50: 2.76 µM (active)
[11]
  IC50: > 80 µM (inactive)
BJ [12]
  EC50: 2.84 µM (inconclusive)
Estrogen receptor beta
  IC50: > 50 µM (not active)
BJ [13]
  EC50: 4.74 µM (inconclusive)
[14]
  EC50: 2.76 µM (active)
[15]
  IC50: 21.7 µM (active)
Estrogen receptor
  IC50: 24.7 µM (active)

## COc1ccc(CN(CC2CCCO2)C(=O)CN2C(=O)COc3ccccc32)cc1OC (stereo not drawn)
[16]
  EC50: > 32 µM (inactive)
Mu-type opioid receptor [17]
  EC50: > 32 µM (inactive)
[18]
  EC50: > 10 µM (inactive)
[19]
  IC50: > 32 µM (inactive)
[20]
  IC50: > 32 µM (inactive)
[21]
  IC50: > 32 µM (inactive)
Mu-type opioid receptor [22]
  EC50: > 32 µM (inactive)
Mu-type opioid receptor [23]
  IC50: > 32 µM (inactive)
[24]
  EC50: 11 µM
[25]
  EC50: > 32 µM (inactive)
[26]
  EC50: 4.88 µM (active)
[27]
  EC50: 11.5 µM

## COc1cc(NC(=O)c2cc(C3CC3)on2)cc(OC)c1
[28]
  EC50: > 5.57 µM (inactive)

## CN(CC(=O)N1CCc2ccccc2C1)c1ccccc1
[29]
  IC50: > 100 µM (inactive)

## COC(=O)\C(C(C)=O)=C(/C=C/C=C/C=C/N(C)C)N(C)C
[30]
  CC50: > 40 µM (active)
HeLa
  AC50: 274 µM (active)
[31]
  IC50: 8.38 µM (active)
Cytochrome P450 2C9
  AC50: 15.8 µM (inconclusive)
Cytochrome P450 2C19
  AC50: 14.1 µM (inconclusive)
